{
  "source": "patent US10221177B2",
  "about": "(HYDRA BIOSCIENCES, INC., priority 2014, dated 2019)",
  "data": [
    {"biological_target": "human TRPA1 (Homo sapiens (Human), UniProt O75762)", "sequence (O75762 whole entry)": "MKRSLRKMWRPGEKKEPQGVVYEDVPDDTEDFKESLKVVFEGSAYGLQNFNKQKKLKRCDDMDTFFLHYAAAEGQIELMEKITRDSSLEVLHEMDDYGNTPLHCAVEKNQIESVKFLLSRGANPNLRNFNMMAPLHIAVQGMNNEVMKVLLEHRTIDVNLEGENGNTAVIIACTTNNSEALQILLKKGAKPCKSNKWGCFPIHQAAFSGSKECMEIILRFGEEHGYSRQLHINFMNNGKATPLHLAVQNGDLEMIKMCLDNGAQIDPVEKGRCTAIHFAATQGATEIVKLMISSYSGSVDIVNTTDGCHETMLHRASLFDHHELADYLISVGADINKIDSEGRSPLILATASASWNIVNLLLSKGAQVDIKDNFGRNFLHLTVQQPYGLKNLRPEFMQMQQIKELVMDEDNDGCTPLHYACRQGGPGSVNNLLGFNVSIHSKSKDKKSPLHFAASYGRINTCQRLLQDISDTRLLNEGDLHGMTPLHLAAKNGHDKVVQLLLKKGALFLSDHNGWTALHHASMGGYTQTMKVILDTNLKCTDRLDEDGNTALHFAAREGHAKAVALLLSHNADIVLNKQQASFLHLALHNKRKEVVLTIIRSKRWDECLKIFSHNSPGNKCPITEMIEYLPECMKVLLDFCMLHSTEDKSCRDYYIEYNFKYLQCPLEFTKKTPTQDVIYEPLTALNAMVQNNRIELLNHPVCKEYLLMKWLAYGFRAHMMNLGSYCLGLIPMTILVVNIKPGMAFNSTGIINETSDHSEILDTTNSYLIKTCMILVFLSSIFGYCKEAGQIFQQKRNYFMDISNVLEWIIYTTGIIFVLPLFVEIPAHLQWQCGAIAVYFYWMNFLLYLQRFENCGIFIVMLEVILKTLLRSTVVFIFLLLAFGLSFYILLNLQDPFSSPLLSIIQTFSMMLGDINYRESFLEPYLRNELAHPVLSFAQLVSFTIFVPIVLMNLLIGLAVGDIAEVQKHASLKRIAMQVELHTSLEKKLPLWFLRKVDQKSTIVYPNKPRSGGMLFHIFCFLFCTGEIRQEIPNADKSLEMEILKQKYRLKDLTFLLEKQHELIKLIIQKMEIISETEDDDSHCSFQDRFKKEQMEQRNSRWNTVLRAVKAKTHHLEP", "experiment": "In vitro inhibition of human TRPA1, whole cell patch configuration", "assay_type": "cell-based", "conditions": "current activation 10 μM AITC, tested concentrations 320 pM to 3.2 μM, read-out: hTRPA1 IC50", "method_in_brief": "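Compound antagonism measured from voltage ramps (±100 or ±80 mV, 400 ms, every 4 s from −40 mV), analysed at −80 and 80 mV, or at constant −60 mV. HEPES-buffered NaCl bath, pH 7.4, EGTA or 2 mM Ca2+; temperature set by perfusion, within ±2° C; no junction-potential correction.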", "units": {"IC50": "nM"}, "values": [
      {"smiles": "CCC(=O)Cn1c(=O)c2c(ncn2CC(=O)Nc2cccc(-c3cnc(C)c(C(F)(F)F)c3)n2)n(C)c1=O", "note": "[Compound 235, 2-(3-methyl-2,6-dioxo-1-(2-oxobutyl)-2,3-dihydro-1H-purin-7(6H)-yl)-N-(6′-methyl-5′-(trifluoromethyl)-[2,3′-bipyridin]-6-yl)acetamide]", "IC50": 2},
      {"smiles": "Cc1ncc(-c2cccc(NC(=O)Cn3cnc4c3c(=O)n(CCCO)c(=O)n4C)n2)cc1C(F)(F)F", "note": "[Compound 236, 2-(1-(3-hydroxypropyl)-3-methyl-2,6-dioxo-2,3-dihydro-1H-purin-7(6H)-yl)-N-(6′-methyl-5′-(trifluoromethyl)-[2,3′-bipyridin]-6-yl)acetamide]", "IC50": 711},
      {"smiles": "Cc1ncc(-c2cccc(NC(=O)Cn3cnc4c3c(=O)n(CCO)c(=O)n4C)n2)cc1C(F)(F)F", "note": "[Compound 237]", "IC50": 236},
      {"smiles": "Cc1cc(Cn2c(=O)c3c(ncn3CC(=O)Nc3cccc(-c4cnc(C)c(C(F)(F)F)c4)n3)n(C)c2=O)no1", "note": "[Compound 238, 2-(3-methyl-1-((5-methylisoxazol-3-yl)methyl)-2,6-dioxo-2,3-dihydro-1H-purin-7(6H)-yl)-N-(6′-methyl-5′-(trifluoromethyl)-[2,3′-bipyridin]-6-yl)acetamide]", "IC50": 4},
      {"smiles": "Cc1ncc(-c2cccc(NC(=O)Cn3cnc4c3c(=O)n(Cc3ccon3)c(=O)n4C)n2)cc1C(F)(F)F", "note": "[Compound 239, 2-(1-(isoxazol-3-ylmethyl)-3-methyl-2,6-dioxo-2,3-dihydro-1H-purin-7(6H)-yl)-N-(6′-methyl-5′-(trifluoromethyl)-[2,3′-bipyridin]-6-yl)acetamide]", "IC50": 3},
      {"smiles": "Cc1nc(Cn2c(=O)c3c(ncn3CC(=O)Nc3cccc(-c4cnc(C)c(C(F)(F)F)c4)n3)n(C)c2=O)no1", "note": "[Compound 240]", "IC50": 7},
      {"smiles": "Cc1noc(Cn2c(=O)c3c(ncn3CC(=O)Nc3cccc(-c4cnc(C)c(C(F)(F)F)c4)n3)n(C)c2=O)n1", "note": "[Compound 241]", "IC50": 1},
      {"smiles": "CC(=O)CCn1c(=O)c2c(ncn2CC(=O)Nc2cccc(-c3cnc(C)c(C(F)(F)F)c3)n2)n(C)c1=O", "note": "[Compound 242, 2-(3-methyl-2,6-dioxo-1-(3-oxobutyl)-2,3-dihydro-1H-purin-7(6H)-yl)-N-(6′-methyl-5′-(trifluoromethyl)-[2,3′-bipyridin]-6-yl)acetamide]", "IC50": 290},
      {"smiles": "CCC(=O)Cn1c(=O)c2c(ncn2CC(=O)Nc2cncc(-c3cnc(C)c(C(F)(F)F)c3)n2)n(C)c1=O", "note": "[Compound 243, 2-(3-methyl-2,6-dioxo-1-(2-oxobutyl)-2,3-dihydro-1H-purin-7(6H)-yl)-N-(6-(6-methyl-5-(trifluoromethyl)pyridin-3-yl)pyrazin-2-yl)acetamide]", "IC50": 6},
      {"smiles": "CC(=O)Cn1c(=O)c2c(ncn2CC(=O)Nc2cncc(-c3cnc(C)c(C(F)(F)F)c3)n2)n(C)c1=O", "note": "[Compound 245, 2-(3-methyl-2,6-dioxo-1-(2-oxopropyl)-2,3-dihydro-1H-purin-7(6H)-yl)-N-(6-(6-methyl-5-(trifluoromethyl)pyridin-3-yl)pyrazin-2-yl)acetamide]", "IC50": 8},
      {"smiles": "Cc1cc(Cn2c(=O)c3c(ncn3CC(=O)Nc3csc(-c4cnc(C)c(C(F)(F)F)c4)n3)n(C)c2=O)no1", "note": "[Compound 246, 2-(3-methyl-1-((5-methylisoxazol-3-yl)methyl)-2,6-dioxo-2,3-dihydro-1H-purin-7(6H)-yl)-N-(2-(6-methyl-5-(trifluoromethyl)pyridin-3-yl)thiazol-4-yl)acetamide]", "IC50": 1},
      {"smiles": "CCC(=O)Cn1c(=O)c2c(ncn2CC(=O)Nc2csc(-c3cnc(C)c(C(F)(F)F)c3)n2)n(C)c1=O", "note": "[Compound 247, 2-(3-methyl-2,6-dioxo-1-(2-oxobutyl)-2,3-dihydro-1H-purin-7(6H)-yl)-N-(2-(6-methyl-5-(trifluoromethyl)pyridin-3-yl)thiazol-4-yl)acetamide]", "IC50": 2},
      {"smiles": "Cc1nc(Cn2c(=O)c3c(ncn3CC(=O)Nc3csc(-c4cnc(C)c(C(F)(F)F)c4)n3)n(C)c2=O)no1", "note": "[Compound 248, 2-(3-methyl-1-((5-methyl-1,2,4-oxadiazol-3-yl)methyl)-2,6-dioxo-2,3-dihydro-1H-purin-7(6H)-yl)-N-(2-(6-methyl-5-(trifluoromethyl)pyridin-3-yl)thiazol-4-yl)acetamide]", "IC50": 4},
      {"smiles": "CCC(=O)Cn1c(=O)c2c(ncn2CC(=O)Nc2csc(-c3cnc(C(F)(F)F)c(C)c3)n2)n(C)c1=O", "note": "[Compound 249, 2-(3-methyl-2,6-dioxo-1-(2-oxobutyl)-2,3-dihydro-1H-purin-7(6H)-yl)-N-(2-(5-methyl-6-(trifluoromethyl)pyridin-3-yl)thiazol-4-yl)acetamide]", "IC50": 6},
      {"smiles": "Cc1noc(Cn2c(=O)c3c(ncn3CC(=O)Nc3csc(-c4cnc(C(F)(F)F)c(C)c4)n3)n(C)c2=O)n1", "note": "[Compound 250, 2-(3-methyl-1-((3-methyl-1,2,4-oxadiazol-5-yl)methyl)-2,6-dioxo-2,3-dihydro-1H-purin-7(6H)-yl)-N-(2-(5-methyl-6-(trifluoromethyl)pyridin-3-yl)thiazol-4-yl)acetamide]", "IC50": 6},
      {"smiles": "Cc1cc(-c2nc(NC(=O)Cn3cnc4c3c(=O)n(CC(F)(F)F)c(=O)n4C)cs2)cnc1C(F)(F)F", "note": "[Compound 251, 2-(3-methyl-2,6-dioxo-1-(2,2,2-trifluoroethyl)-2,3-dihydro-1H-purin-7(6H)-yl)-N-(2-(5-methyl-6-(trifluoromethyl)pyridin-3-yl)thiazol-4-yl)acetamide]", "IC50": 219},
      {"smiles": "Cc1noc(Cn2c(=O)c3c(ncn3CC(=O)Nc3csc(-c4cnc(C)c(C(F)(F)F)c4)n3)n(C)c2=O)n1", "note": "[Compound 252, 2-(3-methyl-1-((3-methyl-1,2,4-oxadiazol-5-yl)methyl)-2,6-dioxo-2,3-dihydro-1H-purin-7(6H)-yl)-N-(2-(6-methyl-5-(trifluoromethyl)pyridin-3-yl)thiazol-4-yl)acetamide]", "IC50": 1},
      {"smiles": "COCC(=O)Cn1c(=O)c2c(ncn2CC(=O)Nc2csc(-c3cnc(C)c(C(F)(F)F)c3)n2)n(C)c1=O", "note": "[Compound 254, 2-(1-(3-methoxy-2-oxopropyl)-3-methyl-2,6-dioxo-2,3-dihydro-1H-purin-7(6H)-yl)-N-(2-(6-methyl-5-(trifluoromethyl)pyridin-3-yl)thiazol-4-yl)acetamide]", "IC50": 14},
      {"smiles": "COCC(=O)Cn1c(=O)c2c(ncn2CC(=O)Nc2csc(-c3cnc(C(F)(F)F)c(C)c3)n2)n(C)c1=O", "note": "[Compound 255, 2-(1-(3-methoxy-2-oxopropyl)-3-methyl-2,6-dioxo-2,3-dihydro-1H-purin-7(6H)-yl)-N-(2-(5-methyl-6-(trifluoromethyl)pyridin-3-yl)thiazol-4-yl)acetamide]", "IC50": 13},
      {"smiles": "CCC(=O)Cn1c(=O)c2c(ncn2[C@@H](C)C(=O)Nc2cccc(-c3cnc(N4CC5C(C4)C5(F)F)cn3)n2)n(C)c1=O", "note": "(stereo partly drawn) [Compound 256, (2S)—N-(6-(5-(6,6-difluoro-3-azabicyclo[3.1.0]hexan-3-yl)pyrazin-2-yl)pyridin-2-yl)-2-(3-methyl-2,6-dioxo-1-(2-oxobutyl)-2,3-dihydro-1H-purin-7(6H)-yl)propanamide]", "IC50": 5},
      {"smiles": "CC(=O)Cn1c(=O)c2c(ncn2[C@@H](C)C(=O)Nc2cccc(-c3cnc(N4CC5C(C4)C5(F)F)cn3)n2)n(C)c1=O", "note": "(stereo partly drawn) [Compound 257, (2S)—N-(6-(5-(6,6-difluoro-3-azabicyclo[3.1.0]hexan-3-yl)pyrazin-2-yl)pyridin-2-yl)-2-(3-methyl-2,6-dioxo-1-(2-oxopropyl)-2,3-dihydro-1H-purin-7(6H)-yl)propanamide]", "IC50": 11},
      {"smiles": "COCC(=O)Cn1c(=O)c2c(ncn2[C@@H](C)C(=O)Nc2cccc(-c3ccc(N4CC5C(C4)C5(F)F)nc3)n2)n(C)c1=O", "note": "(stereo partly drawn) [Compound 258, (2S)—N-(6′-(6,6-difluoro-3-azabicyclo[3.1.0]hexan-3-yl)-[2,3′-bipyridin]-6-yl)-2-(1-(3-methoxy-2-oxopropyl)-3-methyl-2,6-dioxo-2,3-dihydro-1H-purin-7(6H)-yl)propanamide]", "IC50": 7},
      {"smiles": "Cc1cc(Cn2c(=O)c3c(ncn3CC(=O)Nc3csc(-c4cnc(C(F)(F)F)nc4)n3)n(C)c2=O)no1", "note": "[Compound 259, 2-(3-methyl-1-((5-methylisoxazol-3-yl)methyl)-2,6-dioxo-2,3-dihydro-1H-purin-7(6H)-yl)-N-(2-(2-(trifluoromethyl)pyrimidin-5-yl)thiazol-4-yl)acetamide]", "IC50": 17},
      {"smiles": "Cc1noc(Cn2c(=O)c3c(ncn3CC(=O)Nc3csc(-c4cnc(C(F)(F)F)nc4)n3)n(C)c2=O)n1", "note": "[Compound 260, 2-(3-methyl-1-((3-methyl-1,2,4-oxadiazol-5-yl)methyl)-2,6-dioxo-2,3-dihydro-1H-purin-7(6H)-yl)-N-(2-(2-(trifluoromethyl)pyrimidin-5-yl)thiazol-4-yl)acetamide]", "IC50": 17},
      {"smiles": "CC#CCn1c(=O)c2c(ncn2[C@@H](C)C(=O)Nc2cncc(-c3cnc(N4CC5CC5C4)nc3)n2)n(C)c1=O", "note": "(stereo partly shown) [Compound 261]", "IC50": 5},
      {"smiles": "CC#CCn1c(=O)c2c(ncn2[C@@H](C)C(=O)Nc2csc(-c3ccc(N4CC5C(C4)C5(F)F)nc3)n2)n(C)c1=O", "note": "(stereo partly drawn) [Compound 262, (2S)-2-(1-(but-2-yn-1-yl)-3-methyl-2,6-dioxo-2,3-dihydro-1H-purin-7(6H)-yl)-N-(2-(6-(6,6-difluoro-3-azabicyclo[3.1.0]hexan-3-yl)pyridin-3-yl)thiazol-4-yl)propanamide]", "IC50": 1},
      {"smiles": "CC#CCn1c(=O)c2c(ncn2[C@@H](C)C(=O)Nc2csc(-c3ccc(N4CC5CC5C4)nc3)n2)n(C)c1=O", "note": "(stereo partly drawn) [Compound 263, (2S)—N-(2-(6-(3-azabicyclo[3.1.0]hexan-3-yl)pyridin-3-yl)thiazol-4-yl)-2-(1-(but-2-yn-1-yl)-3-methyl-2,6-dioxo-2,3-dihydro-1H-purin-7(6H)-yl)propanamide]", "IC50": 4},
      {"smiles": "COCC(=O)Cn1c(=O)c2c(ncn2[C@@H](C)C(=O)Nc2csc(-c3cnc(N4CC5CC5C4)cn3)n2)n(C)c1=O", "note": "(stereo partly drawn) [Compound 264, (2S)—N-(2-(5-(3-azabicyclo[3.1.0]hexan-3-yl)pyrazin-2-yl)thiazol-4-yl)-2-(1-(3-methoxy-2-oxopropyl)-3-methyl-2,6-dioxo-2,3-dihydro-1H-purin-7(6H)-yl)propanamide]", "IC50": 31}
    ]}
  ]
}
